This is an account of results in publication PMC10434032 (Microbiology Spectrum, 2023).

The subject of series [1] is MPXV. Briefly: microbe, parasite or virus in culture. It counts as cell-based, Mpox virus. Conditions: for IC50 / IC90: Monkeypox virus, Huh-7, 24 h; for IC50: read-out: Anti-MPXV activity: IC50; for IC90: read-out: Anti-MPXV activity: IC90.
Series [2] is described as follows: in vitro. Conditions: human.
Series [3] has as its system MPXV. It counts as cell-based, Mpox virus.
Series [4] has as its system MPXV Liberia strain (West African strain, clade IIa). Type of series: cell-based, Mpox virus.
Series [5] has as its system MPXV. Briefly: microbe, parasite or virus in culture. Type of series: cell-based, Mpox virus. Conditions: Monkeypox virus; for IC50: Vero C1008, read-out: Anti-MPXV activity: IC50; for IC90: Vero C1008, read-out: Anti-MPXV activity: IC90.
Series [6] relates to MPXV. Type of series: cell-based, Mpox virus. This is another data set of the same source.
Series [7] has as its system MPXV SPL-mpx2A7 strain (clade IIb). Type of series: cell-based, Mpox virus.
The test system of the next series is vaccinia virus (LC16m8). It counts as cell-based.
For series [8], the system named is MPXV. Type of series: cell-based, Mpox virus. The source holds these as a separate data set.
For series [9], the system named is cowpox virus (Brighton Red). It counts as cell-based.
Another series concerns ISG15 and ISG56. It counts as cell-based, human.
Series [10] in a line: in vitro. Conditions: African green monkey.
In series [11] the test system is MPXV. It counts as cell-based, Mpox virus. This is another data set of the same source.
Series [12] deals with MPXV Zr-599 (Congo Basin strain, clade I). Type of series: cell-based, Mpox virus.

Where two headings read alike, the source gives them in different places. Some results are limits rather than exact numbers.

As usually defined, the IC50 is the concentration that gives 50% inhibition. Broadly, the IC90 is the concentration at which the effect reaches the 90% level. Regarding `CC[C@H](CC#N)OC(=O)N[C@@H](C)c1cccc(NC(=O)Nc2ccc(-c3cnco3)c(OC)c2)c1` [AVN-944], in the series with MPXV [1], the IC50 amounted to 15 nM and the IC90 worked out at 42 nM. This molecule also displayed a CC50 in the series “in vitro [2]” above 10000 nM.

Consider `COc1c(C)c2c(c(O)c1C/C=C(\C)CCC(=O)O)C(=O)OC2` [MPA, mycophenolic acid], for which, in the series with MPXV [3], the “effect of guanosine supplementation on MPA-mediated reduction of viral DNA levels” value is recorded as “clearly recovered the MPA-mediated reduction of viral DNA levels in a dose-dependent manner”. Moreover, the “selectivity index (SI = CC50/IC50)” value with MPXV [1] is given as above 10.6. Besides, the 50% inhibitory concentration (IC50) is 940 nM with MPXV [1] and 260 nM with MPXV [5]. In addition, the IC90 came to 3350 nM in the series on MPXV [1] and 370 nM with MPXV [5]. Further, the “expression of viral proteins (immunofluorescence)” value (shortened to “expression of viral proteins”) (in series [4]; in series [7]; in the series on vaccinia virus (LC16m8); in series [9]) was “clearly reduced” throughout. In addition, in the series with MPXV [6], the “MPXV protein expression (immunofluorescence)” value (“MPXV protein expression” below) was “drastically reduced”. For the same molecule, the CC50 was above 10000 nM in “in vitro [2]” and above 100000 nM in “in vitro [10]”. In addition, the “virions observed in cells by electron microscopy” value (“virions observed in cells” for short) in the series on MPXV [8] is recorded as “few virions were observed”. For the same molecule, in the series on ISG15 and ISG56, the “induction of interferon-stimulated genes ISG15 and ISG56” value was “did not observe significant induction”. The “antiviral activity by treatment period (a whole life cycle 0-24 h, b entry phase 0-2 h, c postentry 2-24 h)” value (“antiviral activity by treatment period” below) in the series on MPXV [11] is “significantly reduced under conditions a and c but not under condition b”.

Turning to `COc1cc(NC(=O)Nc2cccc(CNC(=O)O[C@H]3CCOC3)c2)ccc1-c1cnco1` [Merimepodib, merimepodib], in the series on MPXV [1], the IC50 came out at 290 nM and the concentration for an effect of 90% (IC90) was found to be 610 nM. In addition, in the series “in vitro [2]”, the CC50 is above 10000 nM.

For `COc1c(C)c2c(c(O)c1C/C=C(\C)CCC(=O)OCCN1CCOCC1)C(=O)OC2` [Mycophenolate mofetil, mycophenolate mofetil], in the series on MPXV [1], the half-inhibitory concentration (IC50) worked out at 340 nM and the IC90 is 1080 nM. In the series “in vitro [2]”, this molecule came in with a CC50 above 10000 nM.

`NC(=O)c1ncn([C@@H]2O[C@H](CO)[C@@H](O)[C@H]2O)n1` [Ribavirin, ribavirin]: in the series on MPXV [1], the IC50 worked out at 13000 nM and the IC90 stood at 44000 nM. In addition, the CC50 in “in vitro [2]” was above 100000 nM.

On to `CCCCCCCCCCCCCCCCOCCCOP(=O)(O)CO[C@H](CO)Cn1ccc(N)nc1=O` [brincidofovir], for which, in the series on MPXV [5], the IC50 came out at 2100 nM and the IC90 was 4290 nM. Besides, the “number of surviving cells (fold relative to DMSO-treated control cells)” value in [12] is reported as 103 fold. Also, the CC50 in “in vitro [10]” is above 10000 nM. In addition, in the series on MPXV [11], the “antiviral activity by treatment period” value was “significant antiviral activity in conditions a and c but not in condition b”.

In the case of `Nc1ccn([C@@H]2O[C@H](CO)[C@@H](O)C2(F)F)c(=O)n1` [gemcitabine], the “expression of viral proteins” value (in series [4]; in [7]; in the series on vaccinia virus (LC16m8); in [9]) was “clearly reduced” each time. Moreover, the IC50 in the series with MPXV [5] was 24 nM. The IC90 in the series with MPXV [5] was determined as 26 nM. For the same molecule, the “MPXV protein expression” value in the series on MPXV [6] was “drastically reduced”. Also, the “virions observed in cells” value in the series on MPXV [8] is on record as “few virions were observed”. In addition, in the series “in vitro [10]”, the CC50 is above 100000 nM. The “antiviral activity by treatment period” value in the series with MPXV [11] is “significantly reduced under conditions a and c but not under condition b”.

Take `O=C(NN1C(=O)[C@@H]2[C@@H]3C=C[C@@H]([C@H]4C[C@@H]34)[C@@H]2C1=O)c1ccc(C(F)(F)F)cc1` [tecovirimat]: in the series on MPXV [8], the “virions observed in cells” value is “crescents, immature, and mature virions but not wrapped virions were observed”. For the same molecule, the “number of surviving cells (fold relative to DMSO-treated control cells)” value in series [12] turned out to be 223 fold.

Regarding `O=c1[nH]c(=O)n([C@H]2C[C@H](O)[C@@H](CO)O2)cc1C(F)(F)F` [trifluridine], the “expression of viral proteins” value (in [4]; in series [7]; in the series on vaccinia virus (LC16m8); in series [9]) was “clearly reduced” in each case. The IC50 in the series on MPXV [5] is 490 nM. Further, in the series on MPXV [5], the IC90 is 890 nM. Further, the “MPXV protein expression” value in the series on MPXV [6] is reported as “drastically reduced”. In addition, the “virions observed in cells” value with MPXV [8] is given as “few virions were observed”. The same molecule displayed a CC50 in “in vitro [10]” above 100000 nM. The “antiviral activity by treatment period” value in the series on MPXV [11] is “significantly reduced under conditions a and c but not under condition b”.

For the molecule heparin, in the series with MPXV [11], the “antiviral activity by treatment period” value is recorded as “significant antiviral activity under condition b”.
